In paper PMC4992173, “Divergent synthesis and identification of the cellular targets of deoxyelephantopins” (Nature Communications, 2016) one finds IC50 data, which are given here for one compound.

The assay has as its target T1, PPARγ C176A (Homo sapiens, UniProt P37231, C176A).
T1 construct: host or cells: 293T
The experiment in a line: Gel-based competitive IC50 determination in 293T lysates: C176A PPARγ. The format is binding. The settings on record: C176A PPARγ expressed in 293T cells, lysate, 1 h, then 10 μM 24c-Cy3. From the text: Finally, we sought to understand the molecular basis for PPARγ binding by the synthetic analogues of deoxyelephantopin through identification of the precise covalently modified amino acid site. There is literature precedent for oxidized fatty acids containing an α,β-unsaturated ketone to form a covalent bond with a cysteine in the ligand-binding site of PPARγ[53]. More recently, synthetic ligands binding reversibly to a distinct site were identified. […] Bearing in mind that the structurally simplified, and thus less prone to MS/MS fragmentation, probe 23c binds PPARγ as efficiently as 24c (Supplementary Fig. 13), we treated the recombinant nuclear receptor with the former compound, digested the protein and analysed the resulting peptides by LC–MS/MS. […]
Supplementary figure 21: Top: Fluorescence gels corresponding to the IC50 curves presented in the main text Figure 8b. γ fluorescence signal in percentage after 19a treatment. […]
Biological materials. […] Protein concentration was determined using the Bradford assay (Bio-Rad).
Cell culture and preparation of lysates. […] Cells were lysed by sonication to form cell lysates and protein concentration was determined using the Bradford […]

pIC50: −log10 of the molar value.

T1 sequence (P37231 whole entry C176A): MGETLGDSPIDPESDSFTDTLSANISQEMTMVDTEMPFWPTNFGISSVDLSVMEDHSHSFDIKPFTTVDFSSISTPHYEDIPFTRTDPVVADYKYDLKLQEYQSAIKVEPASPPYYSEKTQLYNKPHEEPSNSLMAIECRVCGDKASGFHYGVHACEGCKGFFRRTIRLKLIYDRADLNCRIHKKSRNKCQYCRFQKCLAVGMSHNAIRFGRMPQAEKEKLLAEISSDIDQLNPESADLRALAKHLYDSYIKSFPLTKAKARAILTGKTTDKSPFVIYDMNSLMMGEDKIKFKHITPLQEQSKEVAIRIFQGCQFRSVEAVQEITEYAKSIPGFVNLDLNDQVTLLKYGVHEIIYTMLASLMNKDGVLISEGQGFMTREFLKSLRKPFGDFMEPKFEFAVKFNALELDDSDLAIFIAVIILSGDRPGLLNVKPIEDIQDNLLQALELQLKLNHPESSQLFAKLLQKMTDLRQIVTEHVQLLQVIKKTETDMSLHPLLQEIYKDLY

Consider `C=C(C)C(=O)O[C@H]1CC2=C[C@H](C/C=C\[C@H]3OC(=O)C(=C)[C@H]13)OC2=O` [19a], for which the pIC50 is 4.48.
